Laboratory results published in ChEMBL document CHEMBL1201862, “PubChem BioAssay data set” (2004).
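Values below derive from 48-hour exposures of cells grown in 96-well plates, with endpoints linearly interpolated between the two concentrations bracketing the appropriate inhibition level. The concentration for 50% growth inhibition is given as GI50.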 Activity calls are given as the source filed them. No stated cut-off is given here; in the data, active = GI50 up to about 1.1 µM and inactive = higher.

What was measured:
Assay in all cases: growth of human tumour cells (NCI), 48 h
T47D = tested on: T47D
COLO 205 = tested on: COLO 205
M14 = tested on: M14
NCI-H522 = tested on: NCI-H522
NCI-H460 = tested on: NCI-H460
SNB-19 = tested on: SNB-19
HCT-116 = tested on: HCT-116
SK-MEL-5 = tested on: SK-MEL-5
EKVX = tested on: EKVX
MOLT-4 = tested on: MOLT-4
OVCAR-5 = tested on: OVCAR-5
K562 = tested on: K562
HOP-92 = tested on: HOP-92
HCT-15 = tested on: HCT-15
SW-620 = tested on: SW-620
KM12 = tested on: KM12
CCRF-CEM = tested on: CCRF-CEM
SNB-75 = tested on: SNB-75
RPMI-8226 = tested on: RPMI-8226
SF-539 = tested on: SF-539

SMILES	GI50 (T47D)	GI50 (COLO 205)	GI50 (M14)	GI50 (NCI-H522)	GI50 (NCI-H460)	GI50 (SNB-19)	GI50 (HCT-116)	GI50 (SK-MEL-5)	GI50 (EKVX)	GI50 (MOLT-4)	GI50 (OVCAR-5)	GI50 (K562)	GI50 (HOP-92)	GI50 (HCT-15)	GI50 (SW-620)	GI50 (KM12)	GI50 (CCRF-CEM)	GI50 (SNB-75)	GI50 (RPMI-8226)	GI50 (SF-539)
Oc1cccc(-c2cn3cc(Cl)ccc3n2)c1	12.7 µM (inactive)	33.6 µM (inactive)	49.7 µM (inactive)	15.9 µM (inactive)	34 µM (inactive)	> 100 µM (inactive)	57.9 µM (inactive)	16.6 µM (inactive)	24.3 µM (inactive)	32.7 µM (inactive)	72.6 µM (inactive)	42.1 µM (inactive)	91.8 µM (inactive)	30.7 µM	> 100 µM (inactive)	37.2 µM (inactive)	7.03 µM (inactive)			
CCOC(=O)CNC(=O)CNC(=O)CNC(=O)CNNc1c(OCc2ccccc2)c(=O)c1=O	> 100 µM (inactive)	> 100 µM (inactive)	> 100 µM (inactive)	> 100 µM (inactive)		> 100 µM (inactive)	> 100 µM (inactive)	> 100 µM (inactive)	> 100 µM (inactive)	> 100 µM (inactive)	> 100 µM (inactive)	> 100 µM (inactive)		> 100 µM	> 100 µM (inactive)	> 100 µM (inactive)	> 100 µM (inactive)	> 100 µM (inactive)	> 100 µM (inactive)	
COC(=O)C1(C(=O)OC)N=C(C)OC1c1ccoc1 (stereo not drawn)	> 100 µM (inactive)	> 100 µM (inactive)	> 100 µM (inactive)		> 100 µM (inactive)	> 100 µM (inactive)	> 100 µM (inactive)	> 100 µM (inactive)	> 100 µM (inactive)	> 100 µM (inactive)	> 100 µM (inactive)	99.8 µM (inactive)	> 100 µM (inactive)	> 100 µM	> 100 µM (inactive)	> 100 µM (inactive)	> 100 µM (inactive)	> 100 µM (inactive)	> 100 µM (inactive)	
CN(C)CCNC(=O)c1cccc2c(NC(CS)C(=O)O)c3ccccc3nc12 (stereo not drawn)		3.01 µM (inactive)	4.39 µM (inactive)	4.19 µM (inactive)	15 µM (inactive)	7.52 µM (inactive)	4.73 µM (inactive)	3.07 µM (inactive)	11.3 µM (inactive)	3.17 µM (inactive)	4.52 µM (inactive)	3.79 µM (inactive)	19.9 µM (inactive)	3.72 µM	4.05 µM (inactive)	8.47 µM (inactive)	6.37 µM (inactive)	14.4 µM (inactive)	7.52 µM (inactive)	2.41 µM (inactive)
CC(C)c1cc2c(O)c(c1)Cc1cc(C(C)C)cc(c1O)Cc1cc(C(C)C)cc(c1O)Cc1cc(C(C)C)cc(c1O)Cc1cc(C(C)C)cc(c1O)Cc1cc(C(C)C)cc(c1O)C2		> 100 µM (inactive)	> 100 µM (inactive)	> 100 µM (inactive)	> 100 µM (inactive)	> 100 µM (inactive)	> 100 µM (inactive)	> 100 µM (inactive)	> 100 µM (inactive)	> 100 µM (inactive)	> 100 µM (inactive)	> 100 µM (inactive)	> 100 µM (inactive)	> 100 µM	> 100 µM (inactive)	> 100 µM (inactive)	> 100 µM (inactive)	24.9 µM (inactive)	> 100 µM (inactive)	> 100 µM (inactive)
C=C[C@@H](OCOCC[Si](C)(C)C)[C@@H](CC)OC(CCCOC(=O)C(C)(C)C)OC (stereo partly drawn)	19.4 µM (inactive)	29.9 µM (inactive)	36.4 µM (inactive)		54.2 µM (inactive)	16.3 µM (inactive)	21 µM (inactive)	31.3 µM (inactive)	25.3 µM (inactive)	91.2 µM (inactive)	21.7 µM (inactive)	60.4 µM (inactive)	81.1 µM (inactive)	22.1 µM	26.1 µM (inactive)	24 µM (inactive)	27.9 µM (inactive)	31 µM (inactive)	41.7 µM (inactive)	
